Where two headings read alike, the source gives them in different places.
Columns and labels:
[1] = tested on: human umbilical venular endothelial cells; conditions: cited from earlier work
in vivo = conditions: female, Fischer 344, rat
[2] = female, Fischer 344, rat, in vivo
[3] = tested on: A2780/AD (multidrug resistant) human ovarian carcinoma cells; test: cells; format: cell-based; conditions: A2780AD, 48 h, read-out: IC50 (nM) A2780/AD
Mat B-III tumors = test: Pharmacodynamic tumor-growth delay study
Description: Mat B-III cells were obtained from American Type Culture Collection (Rockville, Md.). The cells were maintained in culture in vitro in RMPI medium supplemented with 10% fetal bovine serum, 100 units/ml penicillin-streptomycin sulfate, 2% sodium bicarbonate and 1% non-essential amino acids.
Female Fischer 344 rats (160-180 g) were purchased from Hilltop Laboratories (Scottdale, Pa.) and allowed to acclimate for one week. The rats were housed, two per cage and tagged to facilitate identification. Mat B-III cells grown in serum-containing medium were washed with phosphate buffer and trypsinized for 5 minutes. The cells were collected and centrifuged for 5 minutes. The cell pellet was resuspended in Dulbecco's phosphate buffer (DPBS) and centrifuged as above. This process was repeated three times. Finally the cell pellet (2×10^6 cells/ml) was resuspended and the cells were injected (0.5 ml=1×10^6 cells) subcutaneously into the back of the rats. The rats were weighed daily and examined for tumor development and distress. The tumor size was measured in two dimensions using calipers and the tumor mass was calculated as described in Equation 4.5.
Once the tumors reached a size of approximately 1 cm^3, (500-1000 mg) the rats were randomized into five experimental groups. […] All treatments were administered s.c. in the vicinity of the tumor. The rats were monitored daily for weight loss, tumor growth, skin lesions, distress or ascites. Body weight loss and lethal toxicity were taken into account when evaluating the toxic effects induced by the drug treatment. […]
Therefore, to adequately compare the various treatments, the rats were divided into two groups of 16 rats each based on the size of the tumors on day 10 following inoculation (small tumor group: size ˜500 mg and large tumor group: size ˜1000 mg). […] The dimensions of the tumors were measured prior to and post administration of the treatments in the case of the hydrogel groups to account for the volume of hydrogel.

[4] = tested on: A2780 (sensitive) human ovarian carcinoma cells; test: cells; format: cell-based; conditions: A2780, 48 h, read-out: IC50 (nM) A2780

CC[C@@]1(O)C(=O)OCc2c1cc1n(c2=O)Cc2cc3ccccc3nc2-1 [CPT, Camptothecin]
growth of human umbilical venular endothelial cells in vitro [1]: inhibited the growth

CC[C@@]1(O)C(=O)OCc2c1cc1n(c2=O)Cc2cc3c(CN(C)C)c(O)ccc3nc2-1 [TPT, 9-amino-dimethyl-10-hydroxycamptothecin]
AUC(0-inf) (in vivo; iv, 10 mg/kg): 5910 ng·h/mL
AUC(0-t) (in vivo; iv, 10 mg/kg): 5790 ng·h/mL
bioavailability (in vivo; iv, 10 mg/kg): 100%
AUC (in vivo; iv, 10 mg/kg): 5960 ng·h/mL
half-life (in vivo; iv, 10 mg/kg, Alpha-t1/2): 0.84 ± 0.07 h
clearance (in vivo; iv, 10 mg/kg, Cl): 7.55 mL/min
Cmax (in vivo; iv, 10 mg/kg): 4360 ng/mL
MRT (in vivo; iv, 10 mg/kg): 2.95 h
Vd (in vivo; iv, 10 mg/kg, Vss): 1.32 L
Vd (in vivo; iv, 10 mg/kg, Vz): 3.55 L
half-life (in vivo; iv, 10 mg/kg, t1/2): 6.16 ± 0.56 h
bioavailability (in vivo; sc): 98.8%
AUC(0-inf) (in vivo; sc, 10 mg/kg): 5380 ng·h/mL
AUC(0-t) (in vivo; sc, 10 mg/kg): 4470 ng·h/mL
bioavailability (in vivo; sc, 10 mg/kg): 91.8%
AUC (in vivo; sc, 10 mg/kg): 5800 ± 894 ng·h/mL
Cmax (in vivo; sc, 10 mg/kg): 468 ± 177 ng/mL
half-life (in vivo; sc, 10 mg/kg, Ka-t1/2): 0.32 ± 0.05 h
MRT (in vivo; sc, 10 mg/kg): 13.4 h
Vd/F (in vivo; sc, 10 mg/kg, Vss/F): 6.07 L
Vd/F (in vivo; sc, 10 mg/kg, Vz/F): 5.97 L
half-life (in vivo; sc, 10 mg/kg, t1/2): 6.42 ± 1.99 h
tmax (in vivo; sc, 10 mg/kg, tmax): 2.67 h
MAT (mean absorption time) ([2]; 10 mg/kg): 10.44 h
Alpha ([2]; iv, 10 mg/kg): 0.84 h⁻¹
Cl ([2]; iv, 10 mg/kg): 444.59 mL/h
MRT ([2]; iv, 10 mg/kg): 3.92 h
Vz/F ([2]; iv, 10 mg/kg): 3552.68 mL
kel ([2]; iv, 10 mg/kg): 0.14 h⁻¹
dose fraction (F) that appeared in the systemic circulation ([2]; sc): 92%
Vz ([2]; sc, 10 mg/kg): 5483.75 mL
kel ([2]; sc, 10 mg/kg): 0.10 h⁻¹
tmax ([2]; sc, 10 mg/kg): 1.56 h
IC50 [3]: 55.9 ± 2.67 nM
growth of human umbilical venular endothelial cells in vitro [1]: inhibited the growth
effect on tumor size, small tumor group (Mat B-III tumors; 5 mg/kg s.c., tumors ~500 mg, 16 days): very effective initially in reducing tumor size
effect on tumor size, large tumor group (Mat B-III tumors; 5 mg/kg s.c., tumors ~1000 mg): initially effective
appearance of resected tumors (Mat B-III tumors; at completion of study): highly vascularized and firm
IC50 [4]: 25.3 ± 1.4 nM
